{"source": "patent US6353120B2", "about": "“Process for the preparation of a paclitaxel C-4 methyl carbonate analog” (Bristol-Myers Squibb Company, priority 1999, dated 2002)", "key": {"[1]": {"tested_on": "HCT/pk human colon carcinoma xenograft (multidrug resistant tumor model)", "test": "distal site tumor model, HCT/pk human colon carcinoma xenograft", "format": "in vivo"}, "[2]": {"tested_on": "M109 murine lung carcinoma", "test": "distal site tumor model, M109 murine lung carcinoma", "format": "in vivo"}, "[3]": {"tested_on": "HOC79, a clinically derived Taxol unresponsive ovarian carcinoma xenograft", "test": "distal site tumor model, HOC79 ovarian carcinoma xenograft", "format": "in vivo"}, "[4]": {"tested_on": "L2987 human lung carcinoma xenograft", "test": "distal site tumor model, L2987 human lung carcinoma xenograft", "format": "in vivo"}, "tubulin": {"tested_on": "tubulin", "test": "tubulin polymerization assay", "format": "biochemical"}}}
{"substance": "C-4 methylcarbonate analog of paclitaxel [Compound I]", "values": [{"measurement": "antitumor activity compared with paclitaxel", "setting": "[1]", "result": "superior to paclitaxel"}, {"measurement": "antitumor activity compared with paclitaxel", "setting": "[2]", "result": "superior to paclitaxel"}, {"measurement": "antitumor activity compared with paclitaxel", "setting": "[3]", "result": "superior to paclitaxel"}, {"measurement": "antitumor activity compared with paclitaxel", "setting": "[4]", "result": "superior to paclitaxel"}, {"measurement": "potency in tubulin polymerization relative to paclitaxel", "setting": "tubulin", "result": "about twice as potent as paclitaxel"}]}
